Measurements taken from patent publication US20230416299A1, “COMPOUND AND METHOD FOR THE TREATMENT AND DIAGNOSIS OF NEURODEGENERATIVE CONDITIONS” (Swansea University, priority 2013, published 2023).

How the values were obtained:
[1] = tested on: mouse E11.5 brain primary cultures; assay: Mouse E11.5 brain primary cultures (Islet1+, active caspase 3+, BrdU, Nkx6.1 counts); assay type: cell-based; settings: for Number of Islet1+ cells: wild type cultures, 3 DIV
Experimental: Primary Brain Cultures. Brains from E11.5 mice were manually dissected, plated on poly-D-lysine (150,000 cells/cm2) and grown in serum-free N2 media consisting of 1:1 mixture of F12 and DMEM with 10 ng/mL insulin, 100 μg/mL apo-transferrin, 100 μM putrescine, 20 nM progesterone, 30 nM selenium, 6 mg/mL glucose, and 1 mg/mL BSA. Cells were treated for 3 days in vitro (DIV) with the compounds of interest, fixed with 4% PFA and processed for staining using appropriate antibodies.
For BrdU analysis, cells were treated with BrdU one hour after plating and media was replaced with fresh medium after 16 h. After a further 2 days in culture, cells were treated for 30 min with 2N HCl and then immunocytochemistry was performed to evaluate the number of double BrdU+;Islet1+ cells (a measure of motor neuron neurogenesis). Hoechst staining was performed by permeabilizing cells with a 0.3% Triton-X 100/PBS solution for 5 min followed by incubation with Hoechst 33258 (Sigma) for 10 min.
Antibodies and Detection Procedures. Cells were fixed in 4% PFA, washed in PBS and blocked in 5% normal goat serum/PBS for 1 h at room temperature. Primary antibodies were diluted in PBS (pH 7.4), 0.3% Triton X-100, 1% BSA and incubations were carried out overnight at +4° C. or at room temperature for 2 h. The antibodies used were anti-: BrdU (1:400; Abeam), Islet-1 (1:100; Developmental Studies Hybridoma Bank), cleaved caspase-3 (Asp175) (1:100; Cell Signaling Technology), tyrosine hydroxylase (TH;1:1000; Pel-Freeze) GABA (1:1,000; Sigma), Brn3a (1:250; Millipore), Nkx6.1 (1:200; Novus Biologicals), choline acetyltransferase (ChAT; 1:500; Millipore) and appropriate secondary antibodies (Jackson ImmunoResearch or Alexa). Cells positive for the corresponding marker were counted directly at the microscope at a magnification of 20 x. Cells were counted in every well, in eight consecutive fields (going from one side of the well to the other, passing through the center), in three different wells per experiment and in three different experiments per condition. Random pictures of the wells were taken for every condition to document the result, and representative pictures were subsequently selected to represent the quantitative data. Photos were acquired with a Zeiss Axioplan microscope and a Hamamatsu camera C4742-95 using the Openlab software.

[2] = tested on: Islet-1:GFP transgenic zebrafish embryos; assay type: in vivo; settings: 10 μM
Experimental: Quantitative PCR. Total RNA was extracted from SN4741 cells and zebrafish treated with the compounds of interest using the RNeasy Mini Kit (Qiagen), 1 μg was treated with RQ1 RNase-free DNase (Promega) and reverse transcribed using Superscript II Reverse Transcriptase (Invitrogen) and random primers (Invitrogen) (RT+ reaction). Parallel reactions without reverse transcriptase enzyme were done as a control (RT− reaction), and Sybergreen real-time quantitative PCR assays were performed. Expression levels were obtained by normalization with the value of the housekeeping gene encoding actin obtained for every sample in parallel assays.
Zebrafish Strain and Mainrenance Zebrafish were raised on a 14/10 h day/night cycle and were kept at 28.5° C. Islet-1:GFP transgenic embryos were obtained via natural spawning and staged in hours or days post fertilization (hpf and dpf) according to Kimmel et al). Embryos older than 24 hpf were treated with 0.03% phenylthiourea (PTU) to inhibit pigmentation. MO injections were performed using splice site specific zebrafish 1xr MO. MO injected embryos were immediately dechorionated and transferred to a 96 well plate and exposed to dimethyl sulfoxide (DMSO) treated or ligand treated medium.
Compound Exposure. Islet-1:GFP embryos were collected by natural mating and immediately (at 1 cell stage) dechorionated and transferred to a 96 well plate. Each of the compounds tested were obtained as 10 mM stock and diluted in embryo medium to a final concentration of 10 μM, and 200 μL was added to each well. DMSO or propan-2-ol treated embryo medium was taken as control. Ligand solutions were replaced every 12 h with fresh ligand solution prepared in PTU treated embryo medium. Embryos were collected at 48 hpf, fixed for 4 h at room temperature with 4% paraformaldehyde and then washed and kept in PBST. Immunocytochemistry was performed using an anti-GFP antibody and fluorescence was viewed and photographed using a Zeiss Axioplan compound microscope and a Zeiss Axiocam digital camera.

Lxrβ = target: T1, Lxrβ (Homo sapiens, UniProt P55055); assay: Lxr-responsive luciferase reporter assay (Lxre + Lxrβ) in SN4741 neural cells; assay type: cell-based, mouse; settings: SN4741 cells, 10 μM, 24 h
T1 construct: expressed in transfected cells; host or cells: SN4741 mouse neuronal cell line
T1 sequence (P55055 1-460): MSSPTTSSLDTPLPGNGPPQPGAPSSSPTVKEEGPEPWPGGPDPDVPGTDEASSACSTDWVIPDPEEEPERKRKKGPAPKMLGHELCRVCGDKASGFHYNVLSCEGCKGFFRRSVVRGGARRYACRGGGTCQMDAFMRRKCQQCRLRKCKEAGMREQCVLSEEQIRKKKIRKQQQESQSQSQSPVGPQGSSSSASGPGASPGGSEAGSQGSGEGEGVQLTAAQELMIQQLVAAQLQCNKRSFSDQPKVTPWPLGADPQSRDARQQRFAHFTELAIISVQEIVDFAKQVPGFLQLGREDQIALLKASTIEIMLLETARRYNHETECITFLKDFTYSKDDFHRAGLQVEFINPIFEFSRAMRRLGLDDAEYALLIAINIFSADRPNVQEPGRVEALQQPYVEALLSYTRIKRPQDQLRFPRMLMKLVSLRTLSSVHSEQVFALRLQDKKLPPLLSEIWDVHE
From the text: (§1) Luciferase Reporter Assay.

Lxrα = target: T2, Lxrα (Homo sapiens, UniProt Q13133); assay: Lxr-responsive luciferase reporter assay (Lxre + Lxrα) in SN4741 neural cells; assay type: cell-based, mouse; settings: for Lxrα activation, luciferase activity: 10 μM, 24 h
T2 construct: expressed in transfected cells; host or cells: SN4741 mouse neuronal cell line
T2 sequence (Q13133 1-447): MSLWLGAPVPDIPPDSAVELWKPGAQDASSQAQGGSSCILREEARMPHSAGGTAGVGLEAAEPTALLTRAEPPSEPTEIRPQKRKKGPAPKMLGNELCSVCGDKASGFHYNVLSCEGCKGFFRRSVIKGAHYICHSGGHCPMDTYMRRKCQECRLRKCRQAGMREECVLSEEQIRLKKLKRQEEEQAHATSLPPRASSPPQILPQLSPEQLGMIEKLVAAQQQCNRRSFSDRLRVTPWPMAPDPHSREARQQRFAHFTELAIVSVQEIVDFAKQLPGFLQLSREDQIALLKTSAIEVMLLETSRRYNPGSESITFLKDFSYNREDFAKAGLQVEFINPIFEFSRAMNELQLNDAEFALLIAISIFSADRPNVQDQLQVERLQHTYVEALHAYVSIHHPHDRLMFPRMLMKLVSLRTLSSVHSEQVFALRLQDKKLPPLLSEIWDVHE
From the text: as §1

SMILES | Lxrβ activation, luciferase activity (Lxrβ) | Lxrα activation, luciferase activity (Lxrα) | other results
CC(CCC[C@@H](C)[C@H]1CC[C@H]2[C@@H]3C(=O)C=C4C[C@@H](O)CC[C@]4(C)[C@H]3CC[C@]12C)C(=O)O (stereo partly drawn) [3βH, 7O-CA, 3β-hydroxy-7-oxocholest-5-en-26-oic acid] | have the ability to activate both Lxrs | have the ability to activate both Lxrs | Number of other midbrain neurons (TH+ dopamine, GABAergic, red nucleus) [1]: did not affect the number of other midbrain neurons; Number of Islet1+ cells [1]: increased the number of Islet1+ oculomotor cells in the cultures; Effect on Islet1+ cells with Lxr antagonist GGPP ([1]; wt cultures, GGPP 10 μM): blocked by the Lxr antagonist GGPP; Number of active caspase-3+ cells ([1]; wt cultures, 10 μM 3β,7α-diHCA, 3βH,7O-CA, 25-HC, low concentrations of 3β,7β-diHCA, 3β-HCA): did not affect the number of active caspase-3+ cells; Islet-1 mRNA and protein level (qPCR, western blot) [2]: increase in the level of Islet-1 mRNA and protein; abca1 mRNA expression in vivo [2]: enhanced expression of abca1; Islet-GFP expression in cranial nerves ([2]; 48 hpf): increased Islet-GFP expression; Number of Islet1+ cells in cranial nerves (III, IV, V, VII, X) ([2]; 48 hpf): no significant effect on the number of Islet1+ cells; Islet-GFP levels after lxr morpholino (MO) injection ([2]; lxr MO vs control scrambled MO): abolished the in vivo increase in Islet-GFP levels
CC(C)CCC[C@@H](C)[C@H]1CC[C@H]2[C@@H]3CC[C@H]4CC(=O)CC[C@]4(C)[C@H]3CC[C@]12C [5α-cholestan-3-one] | – | None of these compounds showed significant activity | –
CC(C)CCC[C@@H](C)[C@H]1CC[C@H]2[C@@H]3CC[C@H]4C[C@@H](O)CC[C@]4(C)[C@H]3CC[C@]12C [5α-cholestan-3β-ol] | – | None of these compounds showed significant activity | –
CC(C)CCC[C@@H](C)[C@H]1CC[C@H]2[C@@H]3[C@H](O)CC4=CC(=O)CC[C@]4(C)[C@H]3C[C@H](O)[C@]12C [7α,12α-diHCO, 7α,12α-Dihydroxycholest-4-en-3-one] | – | None of these compounds showed significant activity | –
CC(CO)CCC[C@@H](C)[C@H]1CC[C@H]2[C@@H]3[C@H](O)C=C4C[C@@H](O)CC[C@]4(C)[C@H]3CC[C@]12C (stereo partly drawn) [7α,26-diHC, cholest-5-ene-3β,7α,26-triol] | none of which was found to show significant activity | none of which was found to show significant activity | –
CC(CO)CCC[C@@H](C)[C@H]1CC[C@H]2[C@@H]3[C@H](O)CC4=CC(=O)CC[C@]4(C)[C@H]3CC[C@]12C (stereo partly drawn) [7α,26-diHCO, 7α,26-dihydroxycholest-4-en-3-one] | none of which was found to show significant activity | none of which was found to show significant activity | –
CC(C)CCC[C@@H](C)[C@H]1CC[C@H]2[C@@H]3[C@H](O)C=C4C[C@@H](O)CC[C@]4(C)[C@H]3CC[C@]12C [7α-HC, Cholest-5-ene-3β,7α-diol] | – | None of these compounds showed significant activity | –
CC(C)CCC[C@@H](C)[C@H]1CC[C@H]2[C@@H]3[C@H](O)CC4=CC(=O)CC[C@]4(C)[C@H]3CC[C@]12C [7α-HCO, 7α-Hydroxycholest-4-en-3-one] | – | None of these compounds showed significant activity | –
CC(CCC[C@@H](C)[C@H]1CC[C@H]2[C@@H]3[C@H](O)CC4=CC(=O)CC[C@]4(C)[C@H]3CC[C@]12C)C(=O)O (stereo partly drawn) [7αH,3O-CA, 7α-hydroxy-3-oxocholest-4-en-26-oic acid] | none of which was found to show significant activity | none of which was found to show significant activity | abca1 mRNA expression in vivo [2]: not; Islet-GFP expression in cranial nerves ([2]; 48 hpf): failed to regulate Islet-GFP expression
CC(C)CCC[C@@H](C)[C@H]1CC[C@H]2[C@@H]3[C@@H](O)C=C4C[C@@H](O)CC[C@]4(C)[C@H]3CC[C@]12C [7β-HC, Cholest-5-ene-3β,7β-diol] | – | None of these compounds showed significant activity | –
CC(CCC[C@@H](C)[C@H]1CC[C@H]2[C@@H]3[C@@H](O)CC4=CC(=O)CC[C@]4(C)[C@H]3CC[C@]12C)C(=O)O (stereo partly drawn) [7βH,3O-CA, 7β-hydroxy-3-oxocholest-4-en-26-oic acid] | none of which was found to show significant activity | none of which was found to show significant activity | –
CC(C)CC[C@@H](O)[C@@H](C)[C@H]1CC[C@H]2[C@@H]3CC=C4C[C@@H](O)CC[C@]4(C)[C@H]3CC[C@]12C [22R-HC, 22R-hydroxycholesterol, reference compound] | – | – | Number of Islet1+ cells [1]: does not show an effect towards Islet1+ cells; Lxr luciferase activity with the Lxr antagonist GGPP (Lxrα; metabolite 10 μM + GGPP 10 μM): similarly blocked
CC(C)[C@@H](O)CC[C@@H](C)[C@H]1CC[C@H]2[C@@H]3CC=C4C[C@@H](O)CC[C@]4(C)[C@H]3CC[C@]12C [24S-HC, Cholest-5-ene-3β,24S-diol] | activate Lxr | activate Lxr | –
C[C@@H](CO)CCC[C@@H](C)[C@H]1CC[C@H]2[C@@H]3CC=C4C[C@@H](O)CC[C@]4(C)[C@H]3CC[C@]12C [26-HC, cholest-(25R)-5-ene-3β,26-diol] | no a significant effect | no a significant effect | Number of Islet1+ cells [1]: no effect on the number of Islet1+ cells
CC(C)CCC[C@@H](C)[C@H]1CC[C@H]2[C@@H]3CCC4=CC(=O)CC[C@]4(C)[C@H]3CC[C@]12C [cholest-4-en-3-one] | – | None of these compounds showed significant activity | –
CC(C)CCC[C@@H](C)[C@H]1CC[C@H]2[C@@H]3C=CC4=CC(=O)CC[C@]4(C)[C@H]3CC[C@]12C [cholesta-4,6-dien-3-one] | – | None of these compounds showed significant activity | –
